Test results as given in patent publication US8188070B2, “Method of treating neurological diseases and disorders” (The Trustees of the University of Pennsylvania, priority 2002, dated 2012).

Experiments:
[1] = tested on: S5 cells; assay: High throughput screen: ATP level (viable cells) in S5 cells with reduced SMN; assay type: cell-based, chicken; conditions: for EC50 / Emax: Gallus gallus, S5 cells, 18 ng/ml tet, 0.5 to 20 μM; for EC50: ATP level, read-out: EC50 (effective concentration for half maximum activity); for Emax: percentage increase of ATP level relative to cells treated with DMSO only, read-out: Maximum Activity (%)
Method: In the SMN conditional knockout cell line, S5, the endogenous smn gene is disrupted by homologous recombination, and the SMN protein is stably expressed from an SMN cDNA under the control of a tetracycline (tet)-repressible promoter (Wang and Dreyfuss (2001) supra).
Libraries of compounds were screened against the S5 cell line. […] The cells were incubated for an additional 72 hours and the number of viable cells in each well was determined by measuring the ATP level in the cell lysate, a sensitive assay commonly used to assess cell viability in HTS (Crouch, et al. (1993) J. Immunol. Methods 160:81-88). […] Activity of the compounds was measured as the difference between the sample and the average of the controls.
(§1) The activities of all compounds were further examined at concentrations ranging from 0.5 to 20 μM. […] The activity of each compound was determined as a percentage increase of the ATP level, reflecting the number of viable cells, relative to cells treated with an equal volume of DMSO only.
The chicken pre-B cell line DT40, the smn conditional knockout cell line S5 and the asf/sf2 conditional knockout cell line ASF-DT40 (Wang, et al. (1996) supra) were maintained using known methods (Wang and Dreyfuss (2001) supra). To reduce the SMN level, S5 cells were incubated with 18 ng/ml tetracycline hydrochloride (tet). Similarly, ASF-DT40 cells were treated with 14 ng/ml tet to partially deplete the ASF/SF2 protein.
After being incubated in medium containing 18 ng/ml tet for 24 hours, S5 cells were dispensed into 96-well plates at 120 μl per well. Compounds were added to these cells by pipetting 0.4 μl of the 3 mM libraries into each well to reach a final concentration of 10 μM. The 96-well plates were further incubated for 72 hours at 37° C. with 5% CO2. […] Luminescence was read on a Wallac Victor2 multi-channel plate reader (Perkin-Elmer, Boston, Mass.). The cellular ATP level is a direct measure of the number of viable cells in each well (Crouch, et al. (1993) supra). Data from luminescence readings were analyzed with MICROSOFT® Excel.

[2] = tested on: S5 cells; conditions: for highest concentration at which there is no apparent cell toxicity: S5 cells
Method: as §1
SMN protein levels were also determined. Total cell lysates from treated cells were prepared and analyzed by immunoblotting with an anti-SMN antibody. […] The same blots were probed with antibodies against two other abundant proteins, Y14^10 and β-tubulin, to provide an internal control for the amount of cell lysate loaded on the gel.

[3] = tested on: S5 cells; assay: Cell number determination in S5 cells cultured with 18 ng/ml tet; assay type: cell-based, chicken; conditions: after 96 hours
Method: To determine an accurate measure of the number of viable cells, cell numbers were also determined.

[4] = high-throughput screening system

| SMILES | EC50 [1] [µM] | Emax [1] [%] | other results |
| --- | --- | --- | --- |
| CN(C)CCCN1c2ccccc2CCc2ccccc21 [Compound 4] | 4 | 35 | – |
| COc1ccc(S(=O)(=O)N(CCO)c2ccccc2CN(C)CC=Cc2ccc(Cl)cc2)cc1 [KN-93, reference compound] | – | – | growth of S5 cells [1, 4]: improved the growth of S5 cells |
| CN1CCN(C2=Nc3cc(Cl)ccc3Nc3ccccc32)CC1 [Compound 10] | 3 | 30 | – |
| CN(C)CCC=C1c2ccccc2CCc2ccccc21 [Compound 1] | 3 | 30 | – |
| CN(C)CC/C=C1\c2ccccc2Sc2ccc(Cl)cc21 [Compound 19] | 2 | 30 | – |
| CCN1CCCC(OC(=O)C(c2ccccc2)c2ccccc2)C1 (centres unmarked) [Compound 23] | – | 50 | – |
| Clc1ccc(C(c2ccc(Cl)cc2)n2cc[n+](CC(OCc3ccc(Cl)cc3Cl)c3ccc(Cl)cc3Cl)c2)cc1 (centres unmarked) [Calmidazolium, reference compound] | – | – | concentration improving growth of S5 cells (as low as) [1, 4]: 215 nM; growth of S5 cells [1, 4]: improved the growth of S5 cells |
| CN1CCN2c3ccccc3Cc3ccccc3C2C1 (centres unmarked) [Compound 5] | 5 | 75 | cell toxicity [2]: low cell toxicity |
| CN(C)CCC=C1c2ccccc2C=Cc2ccccc21 [Compound 7] | 3 | 45 | – |
| CCN(CC)C(C)CN1c2ccccc2Sc2ccccc21 (centres unmarked) [Compound 15] | 2 | 70 | – |
| Cc1nc2sccn2c(=O)c1CCN1CCC(=C(c2ccc(F)cc2)c2ccc(F)cc2)CC1 [Compound 27] | – | 80 | – |
| COc1ccc(S(=O)(=O)Nc2ccccc2CN(C)CC=Cc2ccc(Cl)cc2)cc1 [KN-92, 2-[N-(4-Methoxybenzenesulfonyl)] amino-N-(4-chlorocinnamyl)-N-methylbenzylamine, reference compound] | – | – | growth of S5 cells [1, 4]: did not affect the growth of S5 cells |
| CN1CCC(OC(c2ccccc2)c2ccccc2)CC1 [Compound 21] | – | 55 | – |
| CC(CN1c2ccccc2Sc2ccccc21)N(C)C (centres unmarked) [Compound 12] | 2.5 | 75 | increase in cell number over control cells treated with DMSO alone [3]: three to four-fold increase in cell number |
| CN(C)CCCN1c2ccccc2Sc2ccccc21 [Compound 11] | 2.5 | 60 | – |
| O=C(CCCN1CCC2(CC1)C(=O)NCN2c1ccccc1)c1ccc(F)cc1 [Compound 29] | – | 140 | – |
| CN(C)CCCN1c2ccccc2Sc2ccc(Cl)cc21 [Compound 20] | 1 | 35 | highest concentration at which there is no apparent cell toxicity [2]: 4 µM |
| CN(C)CC/C=C1/c2ccccc2COc2ccccc21 [Compound 3] | 5 | 60 | – |
| CN(C)CCCN1c2ccccc2Sc2ccc(C(F)(F)F)cc21 [Compound 18] | 1.5 | 25 | – |
| CCC(=O)c1ccc2c(c1)N(CC(C)N(C)C)c1ccccc1S2 (centres unmarked) [Compound 16] | 1 | 60 | highest concentration at which there is no apparent cell toxicity [2]: 4 µM |
| CNCCCN1c2ccccc2CCc2ccccc21 [Compound 2] | 3 | 30 | – |
| CC(CN(C)C)CN1c2ccccc2Sc2ccccc21 (centres unmarked) [Compound 14] | 2.5 | 40 | – |
| CC(CN(C)C)CN1c2ccccc2CCc2ccccc21 (centres unmarked) [Compound 6] | 2.5 | 50 | – |
| CSc1ccc2c(c1)N(CCC1CCCCN1C)c1ccccc1S2 (centres unmarked) [Compound 17] | 1.5 | 80 | highest concentration at which there is no apparent cell toxicity [2]: 4 µM; increase in cell number over control cells treated with DMSO alone [3]: three to four-fold increase in cell number |
| CN(C)CCCN1c2ccccc2CCc2ccc(Cl)cc21 [Compound 9] | 1.5 | 50 | – |
| O=C(CCCN1CC=C(n2c(=O)[nH]c3ccccc32)CC1)c1ccc(F)cc1 [Compound 22] | – | 50 | – |
| CN1Cc2c(N)cccc2C(c2ccccc2)C1 (centres unmarked) [Compound 24] | – | 35 | – |
| CSc1ccc2c(c1)C(N1CCN(C)CC1)Cc1ccccc1S2 (centres unmarked) [Compound 8] | < 1 | 25 | – |
| COC(=O)[C@H](c1ccccc1Cl)N1CCc2sccc2C1 [Compound 25] | 7 | 100 | – |
